Test results published in publication PMC11345841, “Exploring 2-Sulfonylpyrimidine Warheads as Acrylamide Surrogates for Targeted Covalent Inhibition: A BTK Story” (Journal of Medicinal Chemistry, 2024).
Like-named read-outs stand apart in the source and are kept apart here.

How the values were obtained:
Assay in all cases: KINOMEscan ScanTK
Type in all cases: binding
[1] = molecular target: T1, ABL1(H396P)-phosphorylated (Homo sapiens, UniProt P00519, H396P)
T1 construct: purchased Eurofins DiscoverX KINOMEscan (scanTK)

[2] = molecular target: T2, ABL1(T315I)-phosphorylated (Homo sapiens, UniProt P00519, T315I)
T2 construct: purchased Eurofins DiscoverX KINOMEscan (scanTK)

[3] = molecular target: T3, TIE2 (Homo sapiens, UniProt Q02763)
T3 construct: purchased Eurofins DiscoverX KINOMEscan (scanTK)

[4] = molecular target: T4, ERBB2 (Homo sapiens, UniProt P04626); conditions: ERBB2
T4 construct: purchased Eurofins DiscoverX KINOMEscan (scanTK)
T4 sequence (P04626 23-1255): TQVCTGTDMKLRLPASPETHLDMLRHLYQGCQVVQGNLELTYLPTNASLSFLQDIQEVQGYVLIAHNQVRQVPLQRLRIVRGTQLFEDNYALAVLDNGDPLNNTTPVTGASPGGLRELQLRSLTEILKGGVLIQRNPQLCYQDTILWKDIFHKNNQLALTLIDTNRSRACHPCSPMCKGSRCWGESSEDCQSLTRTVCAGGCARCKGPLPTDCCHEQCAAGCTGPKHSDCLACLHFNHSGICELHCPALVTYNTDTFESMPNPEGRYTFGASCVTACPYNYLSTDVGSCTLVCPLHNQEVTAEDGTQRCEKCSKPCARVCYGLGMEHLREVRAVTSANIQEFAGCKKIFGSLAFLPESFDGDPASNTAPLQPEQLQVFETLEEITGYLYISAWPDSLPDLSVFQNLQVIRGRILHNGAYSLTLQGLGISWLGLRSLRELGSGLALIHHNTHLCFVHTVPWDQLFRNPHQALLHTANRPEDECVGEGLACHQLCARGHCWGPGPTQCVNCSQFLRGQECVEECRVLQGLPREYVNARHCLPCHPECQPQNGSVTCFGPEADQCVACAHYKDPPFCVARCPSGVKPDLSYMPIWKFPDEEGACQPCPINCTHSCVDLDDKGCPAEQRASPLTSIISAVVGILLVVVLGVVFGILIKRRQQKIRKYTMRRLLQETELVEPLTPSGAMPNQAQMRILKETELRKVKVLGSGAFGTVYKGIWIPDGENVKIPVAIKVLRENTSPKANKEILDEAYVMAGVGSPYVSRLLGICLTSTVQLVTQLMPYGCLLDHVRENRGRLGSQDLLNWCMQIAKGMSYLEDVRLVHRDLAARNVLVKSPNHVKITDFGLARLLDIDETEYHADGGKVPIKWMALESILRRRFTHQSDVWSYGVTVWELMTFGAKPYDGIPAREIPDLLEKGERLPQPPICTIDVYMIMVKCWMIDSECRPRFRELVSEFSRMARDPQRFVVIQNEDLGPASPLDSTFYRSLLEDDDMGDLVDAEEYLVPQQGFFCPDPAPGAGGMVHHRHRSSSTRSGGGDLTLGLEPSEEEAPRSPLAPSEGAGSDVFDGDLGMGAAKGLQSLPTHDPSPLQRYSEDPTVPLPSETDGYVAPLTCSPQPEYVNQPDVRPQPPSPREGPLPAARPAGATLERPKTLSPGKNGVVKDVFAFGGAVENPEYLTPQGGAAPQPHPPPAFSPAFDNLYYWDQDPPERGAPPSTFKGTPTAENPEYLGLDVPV

[5] = molecular target: T5, ABL1(F317I)-nonphosphorylated (Homo sapiens, UniProt P00519, F317I)
T5 construct: purchased Eurofins DiscoverX KINOMEscan (scanTK)

[6] = molecular target: T6, EPHA7 (Homo sapiens, UniProt Q15375)
T6 construct: purchased Eurofins DiscoverX KINOMEscan (scanTK)
T6 sequence (Q15375 28-998): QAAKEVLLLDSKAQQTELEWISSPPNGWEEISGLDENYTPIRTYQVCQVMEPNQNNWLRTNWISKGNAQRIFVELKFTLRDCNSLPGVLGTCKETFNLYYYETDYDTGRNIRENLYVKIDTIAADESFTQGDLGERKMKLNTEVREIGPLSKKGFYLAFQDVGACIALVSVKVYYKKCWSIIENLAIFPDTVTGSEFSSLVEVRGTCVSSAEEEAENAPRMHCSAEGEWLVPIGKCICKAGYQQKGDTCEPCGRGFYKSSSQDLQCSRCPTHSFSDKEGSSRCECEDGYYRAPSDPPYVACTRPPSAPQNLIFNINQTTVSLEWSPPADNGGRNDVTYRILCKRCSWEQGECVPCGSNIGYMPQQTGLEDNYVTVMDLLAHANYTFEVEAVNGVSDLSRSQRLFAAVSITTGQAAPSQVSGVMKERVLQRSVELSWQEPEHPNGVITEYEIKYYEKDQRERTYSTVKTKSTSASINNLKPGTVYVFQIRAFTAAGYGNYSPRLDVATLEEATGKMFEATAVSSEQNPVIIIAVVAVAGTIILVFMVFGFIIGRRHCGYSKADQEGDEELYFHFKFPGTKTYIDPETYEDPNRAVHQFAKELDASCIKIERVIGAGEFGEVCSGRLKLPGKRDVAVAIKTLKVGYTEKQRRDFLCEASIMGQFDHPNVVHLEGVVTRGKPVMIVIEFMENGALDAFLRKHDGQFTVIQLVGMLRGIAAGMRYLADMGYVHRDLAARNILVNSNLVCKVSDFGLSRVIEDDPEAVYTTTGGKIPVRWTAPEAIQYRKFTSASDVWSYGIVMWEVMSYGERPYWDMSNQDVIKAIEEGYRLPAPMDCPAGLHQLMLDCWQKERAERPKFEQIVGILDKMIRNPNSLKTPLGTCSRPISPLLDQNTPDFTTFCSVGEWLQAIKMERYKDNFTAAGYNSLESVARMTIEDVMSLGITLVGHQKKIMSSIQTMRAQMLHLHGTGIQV

[7] = molecular target: T7, TIE1 (Homo sapiens, UniProt P35590)
T7 construct: purchased Eurofins DiscoverX KINOMEscan (scanTK)

[8] = molecular target: T8, FLT3(R834Q) (Homo sapiens, UniProt P36888, R834Q)
T8 construct: purchased Eurofins DiscoverX KINOMEscan (scanTK)
T8 sequence (P36888 27-993 R834Q): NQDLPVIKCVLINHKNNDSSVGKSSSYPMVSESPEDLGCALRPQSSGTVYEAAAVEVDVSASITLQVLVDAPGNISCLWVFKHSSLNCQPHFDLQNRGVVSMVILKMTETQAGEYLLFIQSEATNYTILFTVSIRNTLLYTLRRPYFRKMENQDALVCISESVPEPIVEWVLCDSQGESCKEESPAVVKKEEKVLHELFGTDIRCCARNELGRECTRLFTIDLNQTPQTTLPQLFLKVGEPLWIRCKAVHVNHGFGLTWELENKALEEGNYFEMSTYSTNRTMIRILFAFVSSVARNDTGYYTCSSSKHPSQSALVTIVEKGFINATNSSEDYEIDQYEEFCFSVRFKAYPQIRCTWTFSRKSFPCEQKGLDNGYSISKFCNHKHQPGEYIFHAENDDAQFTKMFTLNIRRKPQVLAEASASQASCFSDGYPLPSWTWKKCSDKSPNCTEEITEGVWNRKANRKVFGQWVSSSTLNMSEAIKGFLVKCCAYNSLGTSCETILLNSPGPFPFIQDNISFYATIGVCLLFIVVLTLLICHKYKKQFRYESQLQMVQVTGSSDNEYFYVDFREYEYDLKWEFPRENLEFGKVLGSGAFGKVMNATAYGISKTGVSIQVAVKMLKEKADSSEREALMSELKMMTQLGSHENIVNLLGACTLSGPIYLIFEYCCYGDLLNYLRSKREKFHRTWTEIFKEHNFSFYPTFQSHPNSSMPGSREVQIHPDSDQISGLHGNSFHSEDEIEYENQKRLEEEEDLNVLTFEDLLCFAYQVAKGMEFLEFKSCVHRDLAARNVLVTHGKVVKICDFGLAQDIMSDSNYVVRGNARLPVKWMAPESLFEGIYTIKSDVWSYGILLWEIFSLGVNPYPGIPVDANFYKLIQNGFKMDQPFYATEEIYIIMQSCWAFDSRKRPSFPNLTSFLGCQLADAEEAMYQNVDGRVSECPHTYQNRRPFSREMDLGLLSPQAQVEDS

[9] = molecular target: T9, RET(V804L) (Homo sapiens, UniProt P07949, V804L)
T9 construct: purchased Eurofins DiscoverX KINOMEscan (scanTK)

[10] = molecular target: T10, BMX (Homo sapiens, UniProt P51813)
T10 construct: purchased Eurofins DiscoverX KINOMEscan (scanTK)
T10 sequence (P51813 1-675): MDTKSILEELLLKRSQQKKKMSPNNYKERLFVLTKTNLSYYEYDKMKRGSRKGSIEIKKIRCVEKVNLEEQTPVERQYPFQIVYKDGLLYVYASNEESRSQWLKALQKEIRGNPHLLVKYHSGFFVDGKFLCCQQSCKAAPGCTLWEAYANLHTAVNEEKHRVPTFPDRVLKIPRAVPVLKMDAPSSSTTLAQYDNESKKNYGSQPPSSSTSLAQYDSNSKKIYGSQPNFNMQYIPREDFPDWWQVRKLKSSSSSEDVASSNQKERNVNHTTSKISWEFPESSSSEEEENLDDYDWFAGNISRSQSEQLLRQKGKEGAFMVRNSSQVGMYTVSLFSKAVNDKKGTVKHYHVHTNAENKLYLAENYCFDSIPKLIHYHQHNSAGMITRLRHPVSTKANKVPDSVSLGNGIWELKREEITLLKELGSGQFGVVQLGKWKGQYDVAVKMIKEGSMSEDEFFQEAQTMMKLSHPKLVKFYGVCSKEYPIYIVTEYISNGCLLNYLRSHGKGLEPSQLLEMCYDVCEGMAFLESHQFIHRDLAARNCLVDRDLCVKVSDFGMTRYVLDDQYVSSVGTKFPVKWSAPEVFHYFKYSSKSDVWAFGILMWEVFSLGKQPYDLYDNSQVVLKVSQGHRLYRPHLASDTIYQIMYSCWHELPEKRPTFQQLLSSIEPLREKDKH

[11] = molecular target: T11, INSRR (Homo sapiens, UniProt P14616)
T11 construct: purchased Eurofins DiscoverX KINOMEscan (scanTK)
T11 sequence (P14616 27-1297): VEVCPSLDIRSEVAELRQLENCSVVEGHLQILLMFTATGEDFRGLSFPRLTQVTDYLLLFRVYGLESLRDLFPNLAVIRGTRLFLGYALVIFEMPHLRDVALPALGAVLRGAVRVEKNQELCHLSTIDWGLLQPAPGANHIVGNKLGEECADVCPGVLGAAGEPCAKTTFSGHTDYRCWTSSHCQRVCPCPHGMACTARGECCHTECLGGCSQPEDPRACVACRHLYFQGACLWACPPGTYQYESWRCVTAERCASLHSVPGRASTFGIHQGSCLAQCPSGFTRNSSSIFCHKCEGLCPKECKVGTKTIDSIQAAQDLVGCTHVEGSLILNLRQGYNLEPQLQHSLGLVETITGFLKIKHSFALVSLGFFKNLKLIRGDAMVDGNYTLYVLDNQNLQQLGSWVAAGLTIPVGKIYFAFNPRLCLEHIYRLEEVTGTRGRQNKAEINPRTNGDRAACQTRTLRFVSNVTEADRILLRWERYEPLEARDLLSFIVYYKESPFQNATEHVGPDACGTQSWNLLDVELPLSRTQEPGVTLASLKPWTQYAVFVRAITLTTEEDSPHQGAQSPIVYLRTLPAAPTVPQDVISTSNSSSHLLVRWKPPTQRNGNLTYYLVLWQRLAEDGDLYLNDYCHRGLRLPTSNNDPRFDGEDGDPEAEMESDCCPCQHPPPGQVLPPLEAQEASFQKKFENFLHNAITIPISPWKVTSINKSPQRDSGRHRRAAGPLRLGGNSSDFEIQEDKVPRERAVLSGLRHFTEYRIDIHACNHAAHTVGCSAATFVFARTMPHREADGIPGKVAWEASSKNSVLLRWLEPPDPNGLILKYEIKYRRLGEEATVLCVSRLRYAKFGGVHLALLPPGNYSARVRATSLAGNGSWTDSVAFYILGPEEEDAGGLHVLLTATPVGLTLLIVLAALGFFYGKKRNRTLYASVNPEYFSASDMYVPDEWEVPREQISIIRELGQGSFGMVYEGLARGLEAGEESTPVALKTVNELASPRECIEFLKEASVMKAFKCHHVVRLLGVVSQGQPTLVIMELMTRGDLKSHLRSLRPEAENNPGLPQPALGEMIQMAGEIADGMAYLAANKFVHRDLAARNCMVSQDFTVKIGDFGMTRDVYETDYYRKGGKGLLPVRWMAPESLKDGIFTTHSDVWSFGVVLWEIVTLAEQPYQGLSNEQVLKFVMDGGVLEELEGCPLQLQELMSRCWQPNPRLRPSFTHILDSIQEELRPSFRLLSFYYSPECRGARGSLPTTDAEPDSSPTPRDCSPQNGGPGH

[12] = molecular target: T12, EGFR (Homo sapiens, UniProt P00533)
T12 construct: purchased Eurofins DiscoverX KINOMEscan (scanTK)
T12 sequence (P00533 25-1210): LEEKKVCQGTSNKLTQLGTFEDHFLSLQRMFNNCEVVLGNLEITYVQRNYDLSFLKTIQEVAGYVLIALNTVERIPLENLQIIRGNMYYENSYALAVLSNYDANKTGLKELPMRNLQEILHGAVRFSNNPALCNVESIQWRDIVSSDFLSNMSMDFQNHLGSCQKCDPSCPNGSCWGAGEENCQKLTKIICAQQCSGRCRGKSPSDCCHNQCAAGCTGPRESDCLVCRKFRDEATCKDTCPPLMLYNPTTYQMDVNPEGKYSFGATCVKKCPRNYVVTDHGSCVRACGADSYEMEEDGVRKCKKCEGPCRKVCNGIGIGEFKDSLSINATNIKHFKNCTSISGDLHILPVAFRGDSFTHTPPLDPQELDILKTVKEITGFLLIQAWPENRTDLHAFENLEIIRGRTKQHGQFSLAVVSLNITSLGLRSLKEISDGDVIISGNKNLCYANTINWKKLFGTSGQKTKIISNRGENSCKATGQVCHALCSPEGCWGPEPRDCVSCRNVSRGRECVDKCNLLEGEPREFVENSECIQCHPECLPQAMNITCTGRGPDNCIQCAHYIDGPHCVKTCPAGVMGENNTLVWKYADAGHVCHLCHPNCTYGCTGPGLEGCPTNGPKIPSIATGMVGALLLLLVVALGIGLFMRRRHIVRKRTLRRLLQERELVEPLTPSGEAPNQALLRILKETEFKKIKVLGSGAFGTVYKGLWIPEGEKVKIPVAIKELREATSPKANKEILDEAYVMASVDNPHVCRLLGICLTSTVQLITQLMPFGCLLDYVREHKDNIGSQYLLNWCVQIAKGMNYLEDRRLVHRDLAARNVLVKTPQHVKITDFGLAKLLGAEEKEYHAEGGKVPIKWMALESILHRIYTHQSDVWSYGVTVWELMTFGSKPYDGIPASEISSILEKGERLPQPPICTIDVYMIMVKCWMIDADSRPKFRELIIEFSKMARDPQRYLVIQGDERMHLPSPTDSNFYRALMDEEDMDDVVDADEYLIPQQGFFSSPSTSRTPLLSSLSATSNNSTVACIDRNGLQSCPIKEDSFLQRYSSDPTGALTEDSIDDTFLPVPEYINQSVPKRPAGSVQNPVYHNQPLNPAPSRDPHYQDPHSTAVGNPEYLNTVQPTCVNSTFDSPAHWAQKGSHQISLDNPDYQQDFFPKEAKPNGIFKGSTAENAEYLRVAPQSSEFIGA

[13] = molecular target: T13, MST1R (Homo sapiens, UniProt Q04912)
T13 construct: purchased Eurofins DiscoverX KINOMEscan (scanTK)

Work on `COC(=O)c1cnc(S(C)(=O)=O)nc1N1CCCC(n2nc(-c3ccc(Oc4ccccc4)cc3)c3c(N)ncnc32)C1` (stereo not drawn) [Compound 8b, Methyl 4-(3-(4-Amino-3-(4-phenoxyphenyl)-1H-pyrazolo[3,4-d]pyrimidin-1-yl)piperidin-1-yl)-2-(methylsulfonyl)pyrimidine-5-carboxylate] yielded a %Control difference versus compound Ib at 1 µM ([1]; @1000nM) of 12%, a remaining binding at 1 µM ([1]; @1000nM, read-out: %Control) of 92% and a remaining binding at 1 µM ([1]; read-out: %Control @1000nM) of 92%. It also gave a difference in %Control versus compound Ib at 1 µM ([2]; @1000nM) of -11%, a remaining binding at 1 µM ([2]; @1000nM, read-out: %Control) of 68% and a remaining binding at 1 µM ([2]; read-out: %Control @1000nM) of 68%. It also gave a remaining binding at 1 µM ([3]; @1000nM, read-out: %Control) of 72%, a remaining binding at 1 µM ([3]; read-out: %Control @1000nM) of 72% and a difference in %Control versus compound Ib at 1 µM ([4]; @1000nM) of 41%. For the same compound, the remaining binding at 1 µM ([4]; @1000nM, read-out: %Control) was 41%, the remaining binding at 1 µM ([4]; read-out: %Control @1000nM) was 41% and the difference in %Control versus compound Ib at 1 µM ([5]; @1000nM) was 30%. The remaining binding at 1 µM ([5]; @1000nM, read-out: %Control) was 82%, the remaining binding at 1 µM ([5]; read-out: %Control @1000nM) was 82% and the difference in %Control versus compound Ib at 1 µM ([6]; @1000nM) was -2%. It also gave a remaining binding at 1 µM ([6]; @1000nM, read-out: %Control) of 93%, a remaining binding at 1 µM ([6]; read-out: %Control @1000nM) of 93% and a remaining binding at 1 µM ([7]; @1000nM, read-out: %Control) of 77%. For the same compound, the remaining binding at 1 µM ([7]; read-out: %Control @1000nM) was 77%, the difference in %Control versus compound Ib at 1 µM ([8]; @1000nM) was 22% and the remaining binding at 1 µM ([8]; @1000nM, read-out: %Control) was 83%. It also gave a remaining binding at 1 µM ([8]; read-out: %Control @1000nM) of 83%, a remaining binding at 1 µM ([9]; @1000nM, read-out: %Control) of 90% and a remaining binding at 1 µM ([9]; read-out: %Control @1000nM) of 90%. For the same compound, the difference in %Control versus compound Ib at 1 µM ([10]; @1000nM) was 12%, the remaining binding at 1 µM ([10]; @1000nM, read-out: %Control) was 53% and the remaining binding at 1 µM ([10]; read-out: %Control @1000nM) was 53%. It also gave a difference in %Control versus compound Ib at 1 µM ([11]; @1000nM) of 0%, a remaining binding at 1 µM ([11]; @1000nM, read-out: %Control) of 96% and a remaining binding at 1 µM ([11]; read-out: %Control @1000nM) of 96%. It also gave a difference in %Control versus reference compound Ib at 1 µM ([12]; @1000nM, EGFR) of 32.8%, a remaining binding at 1 µM ([12]; @1000nM, EGFR, read-out: %Control) of 33% and a remaining binding at 1 µM ([12]; EGFR, read-out: %Control @1000nM) of 33%. For the same compound, the inhibition at 1 µM ([12]; ScanTK, 1 μM, WT EGFR) was 67%, the remaining binding at 1 µM ([13]; @1000nM, read-out: %Control) was 96% and the remaining binding at 1 µM ([13]; read-out: %Control @1000nM) was 96%.
